From BindingDB's records for doi:10.1016/j.bmcl.2018.01.029 (Presidio Pharmaceuticals, 2018)

What was measured:
[1] = Inhibition of HCV genotype 1b NS5B polymerase infected in human HuH7 replicon cells by luciferase reporter gene assay
[2] = Inhibition of HCV genotype 1a NS5A polymerase L31V/Y93H double mutant infected in human HuH7 replicon cells by luciferase reporter gene assay
[3] = Inhibition of HCV genotype 1a NS5A polymerase infected in human HuH7 replicon cells by luciferase reporter gene assay
[4] = Inhibition of HCV genotype 4a NS5B polymerase infected in human HuH7 replicon cells by luciferase reporter gene assay
[5] = Inhibition of HCV genotype 2a NS5B polymerase infected in human HuH7 replicon cells by luciferase reporter gene assay
[6] = Inhibition of HCV genotype 3a NS5B polymerase infected in human HuH7 replicon cells by luciferase reporter gene assay

EC50 [1] [nM]	EC50 [3] [nM]	Structure (SMILES)	EC50 [2] [nM]	other results
59	688	CNC(=O)c1c(-c2ccc(F)cc2)oc2cc3c(cc12)[C@@H](C)N(C)C(=O)CN3S(C)(=O)=O		
		CS(=O)(=O)N1CCCCc2cc3c(C4=NCCN4)c(-c4ccc(F)cc4)oc3cc21	> 2000	
	> 2000	CNC(=O)c1c2cc3c(cc2nn1-c1ccc(F)cc1)N(S(C)(=O)=O)CCCC3C (centres undefined)		
26		CNC(=O)c1c(-c2ccc(F)cc2)oc2cc3c(cc12)CCCCCCN3S(C)(=O)=O		
	> 2000	CCNC(=O)c1c(-c2ccc(F)cc2)oc2cc3c(cc12)CCCCN3S(C)(=O)=O		
19	16	CNC(=O)c1c(-c2ccc(F)cc2)oc2cc3c(cc12)C(C)OCC(CS(C)(=O)=O)N3S(C)(=O)=O (centres undefined)		EC50 [4]: 51 nM; EC50 [5]: 134 nM; EC50 [6]: 70 nM
3	4	CNC(=O)c1c(-c2ccc(F)cc2)oc2cc3c(cc12)[C@H](C)O[C@H](CS(C)(=O)=O)CN3S(C)(=O)=O		EC50 [4]: 7 nM; EC50 [5]: 18 nM; EC50 [6]: 10 nM
		CS(=O)(=O)N1CCCCc2cc3c(C(=O)NC4CC4)c(-c4ccc(F)cc4)oc3cc21	> 2000	
13	93	CNC(=O)c1c(-c2ccc(F)cc2)oc2cc3c(cc12)[C@H](C)OC1(CC1)CN3S(C)(=O)=O		
1470		CNC(=O)c1c(-c2ccc(F)cc2)oc2cc3c(cc12)[C@@H](C)O[C@@H](CO)CN3S(C)(=O)=O		
5		CNC(=O)c1c(-c2ccc(F)cc2)oc2cc3c(cc12)[C@H](C)NC(=O)CN3S(C)(=O)=O		
38		CNC(=O)c1c(-c2ccc(F)cc2)oc2cc3c(cc12)[C@@H](C)n1nncc1CN3S(C)(=O)=O		
304		CNC(=O)c1c(-c2ccc(F)cc2)oc2cc3c(cc12)CCN3S(C)(=O)=O		
		CS(=O)(=O)N1CCCCc2cc3c(C(N)=O)c(-c4ccc(F)cc4)oc3cc21	> 2000	
74	26	CNC(=O)c1c(-c2ccc(F)cc2)oc2cc3c(cc12)C(C)n1ccnc1CN3S(C)(=O)=O (centres undefined)		
850		CS(=O)(=O)N1CCCCc2cc3c(-c4ncn[nH]4)c(-c4ccc(F)cc4)oc3cc21		
8	33	CNC(=O)c1c(-c2ccc(F)cc2)oc2cc3c(cc12)C(C)n1nnnc1CN3S(C)(=O)=O (centres undefined)		
17	180	CNC(=O)c1c(-c2ccc(F)cc2)oc2cc3c(cc12)C(C)N(C)C(=O)CN3S(C)(=O)=O (centres undefined)		
7	9	CNC(=O)c1c(-c2ccc(F)cc2)oc2cc3c(cc12)C(C)OC(CS(C)(=O)=O)CN3S(C)(=O)=O (centres undefined)		EC50 [4]: 17 nM; EC50 [5]: 64 nM; EC50 [6]: 17 nM

EC50 [1] [nM]	EC50 [3] [nM]	Structure (SMILES)	EC50 [2] [nM]	other results
666	> 2000	CNC(=O)c1c(-c2ccc(F)cc2)oc2cc3c(cc12)[C@@H](C)OC1(CC1)CN3S(C)(=O)=O		
5		CNC(=O)c1c(-c2ccc(F)cc2)oc2cc3c(cc12)CCCCCN3S(C)(=O)=O		
586	1800	CNC(=O)c1c(-c2ccc(F)cc2)oc2cc3c(cc12)[C@@H](C)NC(=O)CN3S(C)(=O)=O		
33	40	CNC(=O)c1c(-c2ccc(F)cc2)oc2cc3c(cc12)C(C)OCC(CO)N3S(C)(=O)=O (centres undefined)		EC50 [4]: 117 nM; EC50 [5]: 141 nM; EC50 [6]: 53 nM
6		CNC(=O)c1c(-c2ccc(F)cc2)oc2cc3c(cc12)C(C)n1nncc1CN3S(C)(=O)=O (centres undefined)		
12	52	CNC(=O)c1c(-c2ccc(F)cc2)oc2cc3c(cc12)C(C)OC(CO)CN3S(C)(=O)=O (centres undefined)		EC50 [4]: 32 nM; EC50 [5]: 62 nM; EC50 [6]: 20 nM
		CS(=O)(=O)N1CCCCc2cc3c(C(=O)NC#N)c(-c4ccc(F)cc4)oc3cc21	> 2000	
19	130	CNC(=O)c1c(-c2ccc(F)cc2)oc2cc3c(cc12)C(C)OC1(CC1)CN3S(C)(=O)=O (centres undefined)		
1210	> 2000	CNC(=O)c1c(-c2ccc(F)cc2)oc2cc3c(cc12)[C@@H](C)O[C@@H](CS(C)(=O)=O)CN3S(C)(=O)=O		
451		CNC(=O)c1c(-c2ccc(F)cc2)oc2cc3c(cc12)CCCN3S(C)(=O)=O		
13	64	CNC(=O)c1c(-c2ccc(F)cc2)oc2cc3c(cc12)[C@H](C)O[C@@H](CO)CN3S(C)(=O)=O		
8	33	CNC(=O)c1c(-c2ccc(F)cc2)oc2cc3c(cc12)C(C)OC(C)CN3S(C)(=O)=O (centres undefined)		
3		CNC(=O)c1c(-c2ccc(F)cc2)oc2cc3c(cc12)[C@H](C)n1nncc1CN3S(C)(=O)=O		
13	57	CNC(=O)c1c(-c2ccc(F)cc2)oc2cc3c(cc12)[C@H](C)O[C@@H](CS(C)(=O)=O)CN3S(C)(=O)=O		
		CS(=O)(=O)NC(=O)c1c(-c2ccc(F)cc2)oc2cc3c(cc12)CCCCN3S(C)(=O)=O	> 2000	
		CN(C)C(=O)c1c(-c2ccc(F)cc2)oc2cc3c(cc12)CCCCN3S(C)(=O)=O	> 2000	
13	102	CNC(=O)c1c(-c2ccc(F)cc2)oc2cc3c(cc12)[C@H](C)N(C)C(=O)CN3S(C)(=O)=O		
69	554	CNC(=O)c1c(-c2ccc(F)cc2)oc2cc3c(cc12)[C@@H](C)O[C@H](CO)CN3S(C)(=O)=O		
24	100	CNC(=O)c1c(-c2ccc(F)cc2)oc2cc3c(cc12)[C@@H](C)O[C@H](CS(C)(=O)=O)CN3S(C)(=O)=O		

Structure (SMILES)	EC50 [1] [nM]	EC50 [3] [nM]	EC50 [2] [nM]	other results
CNC(=O)c1c(-c2ccc(F)cc2)oc2cc3c(cc12)CCCCN3C(=O)OC	164		722	
CNC(=O)c1c(-c2ccc(F)cc2)oc2cc3c(cc12)[C@@H](C)OCCN3S(C)(=O)=O	686		624	
CNC(=O)c1c(-c2ccc(F)cc2)oc2cc3c(cc12)[C@H](C)OCCN3S(C)(=O)=O	3		9	
CNC(=O)c1c(-c2ccc(F)cc2F)oc2cc3c(cc12)C(C)CCCN3S(C)(=O)=O (centres undefined)	8		15	
CNC(=O)c1c(-c2ccc(F)cc2OC)oc2cc3c(cc12)C(C)CCCN3S(C)(=O)=O (centres undefined)	56		> 2000	
CN(O)C(=O)c1c(-c2ccc(F)cc2)oc2cc3c(cc12)CCCCN3S(C)(=O)=O	298		> 2000	
CNC(=O)c1c(-c2ccc(F)cc2)oc2cc3c(cc12)CCCCN3S(=O)(=O)C1CC1	73	335	423	
C=C1CCCN(S(C)(=O)=O)c2cc3oc(-c4ccc(F)cc4)c(C(=O)NC)c3cc21	26		106	
CNC(=O)c1c(-c2ccc(F)cc2)nn2cc3c(cc12)C(C)CCCN3S(C)(=O)=O (centres undefined)	109		523	
CS(=O)(=O)N1CCCCc2cc3c(-c4ncc[nH]4)c(-c4ccc(F)cc4)oc3cc21	5	33	59	
CNC(=O)c1c(-c2ccc(F)cc2)oc2cc3c(cc12)C(=O)CCCN3S(C)(=O)=O	78		318	
CNC(=O)c1c(-c2ccc(F)cc2)nc2cc3c(cn12)C(C)CCCN3S(C)(=O)=O (centres undefined)	182		801	
CNC(=O)c1c(-c2ccc(F)cc2)oc2cc3c(cc12)C(C)N(C)CCN3S(C)(=O)=O (centres undefined)	14		50	
CNC(=O)c1c(-c2ccc(F)cc2)oc2cc3c(cc12)C(C)CCCN3S(C)(=O)=O (centres undefined)	3		10	
CNC(=O)c1c(-c2ccc(F)cc2)oc2cc3c(cc12)CCCCN3S(C)(=O)=O	17		83	
CNC(=O)c1c(-c2ccc(F)cc2)oc2cc3c(cc12)CCCCN3C(C)=O		> 2000	> 2000	
CNC(=O)c1c(-c2ccc(F)cc2)oc2cc3c(cc12)[C@@H](C)CCCN3S(C)(=O)=O	46		89	
CNC(=O)c1c(-c2ccc(F)cc2)oc2cc3c(cc12)[C@@H]1C[C@@H]1CCN3S(C)(=O)=O	7		25	
CNC(=O)c1c(-c2ccc(F)cc2)oc2cc3c(cc12)C(C)NC(=O)CN3S(C)(=O)=O (centres undefined)	15	19	14	
CNC(=O)c1c(-c2ccc(F)cc2)oc2cc3c(cc12)[C@H](C)CCCN3S(C)(=O)=O	4	10	9	
CNC(=O)c1c(-c2ccc(F)cc2)oc2cc3c(cc12)C(O)CCCN3S(C)(=O)=O (centres undefined)	107		730	
CNC(=O)c1c(-c2ccccc2F)oc2cc3c(cc12)C(C)CCCN3S(C)(=O)=O (centres undefined)	7		11	
CNC(=O)c1c(-c2ccc(Oc3ccc(F)cc3)cc2)oc2cc3c(cc12)C(C)CCCN3S(C)(=O)=O (centres undefined)	14		71	
CNC(=O)c1c(-c2ccc(F)cc2)oc2cc3c(cc12)C1(CCCN3S(C)(=O)=O)CC1	20		118	
CNC(=O)c1c(-c2ccc(F)cc2)oc2cc3c(cc12)C(C)NCCN3S(C)(=O)=O (centres undefined)	43		265	
CNC(=O)c1c(-c2ccc(F)cc2)oc2cc3c(cc12)[C@H]1C[C@H]1CCN3S(C)(=O)=O	> 2000		> 2000	
CONC(=O)c1c(-c2ccc(F)cc2)oc2cc3c(cc12)CCCCN3S(C)(=O)=O	31		90	
CNC(=O)c1c(-c2ccc(F)cc2)oc2cc3c(cc12)C(C)OCCN3S(C)(=O)=O (centres undefined)	11	28	21	
CNC(=O)c1c(-c2ccc(F)cc2)oc2cc3c(cc12)C1CC1CCN3S(C)(=O)=O (centres undefined)	9	35	44	
CNC(=O)c1c(-c2ccc(F)cc2)oc2cc3c(cc12)C(C)=CCCN3S(C)(=O)=O	16		70	
